Test results as given in ChEMBL document CHEMBL4118122, “Identification and biological evaluation of thiazole-based inverse agonists of RORγt” (Bioorg Med Chem Lett, 2018).
Values after ≈ are worked out from the molar mass of the structure shown.

What was measured:
PXR (NR1I2) [1] = target: T1, PXR (NR1I2) (Homo sapiens, UniProt O75469); test: […] at PXR LBD (unknown origin) expressed in HEK293 cells […] at 1 uM after 16 hrs by luciferase reporter gene assay relative to rifampicin; type: ADME, cell-based; conditions: HEK293 cells expressing PXR LBD, read-out: Efficacy
T1 sequence (O75469 whole entry): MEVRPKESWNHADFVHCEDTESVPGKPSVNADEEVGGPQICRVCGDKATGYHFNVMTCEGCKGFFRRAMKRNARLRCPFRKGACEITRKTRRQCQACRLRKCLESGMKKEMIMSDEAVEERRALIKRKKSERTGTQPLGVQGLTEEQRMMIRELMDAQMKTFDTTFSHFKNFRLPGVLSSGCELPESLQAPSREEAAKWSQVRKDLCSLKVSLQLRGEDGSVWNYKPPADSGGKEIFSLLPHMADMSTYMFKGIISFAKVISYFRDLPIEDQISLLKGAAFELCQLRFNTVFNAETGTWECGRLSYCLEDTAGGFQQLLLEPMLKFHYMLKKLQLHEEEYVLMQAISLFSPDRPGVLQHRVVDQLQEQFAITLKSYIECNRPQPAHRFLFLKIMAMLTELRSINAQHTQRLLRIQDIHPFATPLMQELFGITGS

[2] = Thermodynamic solubility of the compound in 30 mM phosphate buffer at 10 mM at pH 7 after 2 to 5 days by UV-HPLC analysis; type: physicochemical; conditions: read-out: Therm_solubility
[3] = Thermodynamic solubility of the compound in fasted state simulated intestinal […] after 2 to 5 days by UV-HPLC analysis; type: physicochemical; conditions: read-out: Therm_solubility
PXR (NR1I2) [4] = target: T1, PXR (NR1I2); test: […] at PXR LBD (unknown origin) expressed in HEK293 cells […] at 10 uM after 16 hrs by luciferase reporter gene assay relative to rifampicin; type: ADME, cell-based; conditions: HEK293 cells expressing PXR LBD, read-out: Efficacy
[5] = Half life in rat microsomes; type: ADME, Microsome
[6] = Half life in human microsomes; type: ADME, Microsome
Cytochrome P450 1A2 = target: T2, Cytochrome P450 1A2 (Homo sapiens, UniProt P05177); test: Inhibition of CYP1A2 (unknown origin); type: ADME
T2 sequence (P05177 whole entry): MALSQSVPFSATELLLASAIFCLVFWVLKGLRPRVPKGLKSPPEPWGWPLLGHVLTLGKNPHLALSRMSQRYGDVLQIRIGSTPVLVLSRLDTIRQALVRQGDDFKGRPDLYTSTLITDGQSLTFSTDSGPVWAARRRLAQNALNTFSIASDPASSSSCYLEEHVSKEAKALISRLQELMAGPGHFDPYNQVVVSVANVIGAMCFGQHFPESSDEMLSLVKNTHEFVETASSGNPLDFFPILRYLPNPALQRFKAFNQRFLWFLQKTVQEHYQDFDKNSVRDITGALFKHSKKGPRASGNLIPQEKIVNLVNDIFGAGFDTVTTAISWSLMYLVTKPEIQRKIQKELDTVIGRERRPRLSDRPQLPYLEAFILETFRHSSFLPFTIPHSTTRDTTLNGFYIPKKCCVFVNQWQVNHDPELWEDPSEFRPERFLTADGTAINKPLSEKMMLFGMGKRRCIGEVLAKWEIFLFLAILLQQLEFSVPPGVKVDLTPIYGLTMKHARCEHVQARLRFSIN

Cytochrome P450 2C19 = Cytochrome P450 2C19 (Homo sapiens, UniProt P33261); test: Inhibition of CYP2C19 (unknown origin); type: ADME
Cytochrome P450 2C8 = target: T3, Cytochrome P450 2C8 (Homo sapiens, UniProt P10632); test: Inhibition of CYP2C8 (unknown origin); type: ADME
T3 sequence (P10632 whole entry): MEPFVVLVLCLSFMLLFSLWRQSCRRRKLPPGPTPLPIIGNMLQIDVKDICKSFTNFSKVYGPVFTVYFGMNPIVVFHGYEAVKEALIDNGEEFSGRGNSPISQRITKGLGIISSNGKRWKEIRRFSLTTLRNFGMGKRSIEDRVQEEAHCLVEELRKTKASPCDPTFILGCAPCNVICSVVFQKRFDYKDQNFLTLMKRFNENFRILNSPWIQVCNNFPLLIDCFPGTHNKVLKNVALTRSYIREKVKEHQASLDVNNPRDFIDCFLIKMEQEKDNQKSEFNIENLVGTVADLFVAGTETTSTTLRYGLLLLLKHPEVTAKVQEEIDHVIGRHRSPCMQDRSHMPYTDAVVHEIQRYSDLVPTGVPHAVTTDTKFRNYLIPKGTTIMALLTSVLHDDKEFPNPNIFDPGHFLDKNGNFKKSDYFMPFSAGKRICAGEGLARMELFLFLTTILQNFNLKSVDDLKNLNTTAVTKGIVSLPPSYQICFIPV

Cytochrome P450 2C9 = Cytochrome P450 2C9 (Homo sapiens, UniProt P11712); test: Inhibition of CYP2C9 (unknown origin); type: ADME
Cytochrome P450 2D6 = Cytochrome P450 2D6 (Homo sapiens, UniProt P10635); test: Inhibition of CYP2D6 (unknown origin); type: ADME
Cytochrome P450 3A4 = Cytochrome P450 3A4 (Homo sapiens, UniProt P08684); test: Inhibition of CYP3A4 (unknown origin); type: ADME
[7] = Volume of distribution at steady state in Sprague-Dawley rat at 0.5 mg/kg, iv; type: ADME, organism-based; conditions: in vivo, read-out: Vdss
Rattus norvegicus = test: (§1) AUC (0 to infinity) in Sprague-Dawley rat at 0.5 mg/kg, iv; type: ADME, organism-based; design: dose 0.5 mg/kg, route intravenous, time infinity; conditions: in vivo
[8] = Initial plasma concentration in Sprague-Dawley rat at 0.5 mg/kg, iv; type: ADME, organism-based
[9] = Half life in Sprague-Dawley rat at 0.5 mg/kg, iv; type: ADME, organism-based; conditions: in vivo
[10] = Cmax in Sprague-Dawley rat at 2.5 mg/kg, po; type: ADME, organism-based; design: dose 2.5 mg/kg, route oral; conditions: in vivo
[11] = Tmax in Sprague-Dawley rat at 2.5 mg/kg, po; type: ADME, organism-based; conditions: in vivo
[12] = AUC (0 to infinity) in Sprague-Dawley rat at 2.5 mg/kg, po; type: ADME, organism-based; design: dose 2.5 mg/kg, time infinity, route oral; conditions: in vivo
[13] = Terminal half life in Sprague-Dawley rat at 2.5 mg/kg, po; type: ADME, organism-based; conditions: in vivo, read-out: beta t1/2 (converted)
[14] = Oral bioavailability in Sprague-Dawley rat at 2.5 mg/kg; type: ADME, organism-based; conditions: in vivo
[15] = Clearance in Sprague-Dawley rat at 0.5 mg/kg, iv; type: ADME, organism-based; conditions: in vivo
[16] = as §1; type: ADME, organism-based; design: dose 0.5 mg/kg, route intravenous, time infinity; conditions: Sprague-Dawley, in vivo
[17] = target: Voltage-gated inwardly rectifying potassium channel KCNH2 (Homo sapiens, UniProt Q12809); test: Inhibition of human ERG
[18] = Glutathione reactivity assessed as GSH adduct formation; type: physicochemical

Cytochrome P450 2C9, sequence (P11712 whole entry): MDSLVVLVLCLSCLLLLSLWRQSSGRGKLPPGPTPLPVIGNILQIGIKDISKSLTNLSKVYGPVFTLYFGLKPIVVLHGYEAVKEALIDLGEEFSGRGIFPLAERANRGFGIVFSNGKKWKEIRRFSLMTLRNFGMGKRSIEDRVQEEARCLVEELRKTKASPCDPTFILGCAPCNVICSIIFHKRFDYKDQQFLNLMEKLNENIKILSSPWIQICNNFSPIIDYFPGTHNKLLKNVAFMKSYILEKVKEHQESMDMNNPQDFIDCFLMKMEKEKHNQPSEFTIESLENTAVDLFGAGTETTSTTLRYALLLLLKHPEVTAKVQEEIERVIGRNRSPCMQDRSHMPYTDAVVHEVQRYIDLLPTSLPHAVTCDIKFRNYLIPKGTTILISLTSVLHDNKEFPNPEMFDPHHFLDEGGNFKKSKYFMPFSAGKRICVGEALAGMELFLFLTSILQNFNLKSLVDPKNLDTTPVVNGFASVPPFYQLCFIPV
Cytochrome P450 2D6, sequence (P10635 whole entry): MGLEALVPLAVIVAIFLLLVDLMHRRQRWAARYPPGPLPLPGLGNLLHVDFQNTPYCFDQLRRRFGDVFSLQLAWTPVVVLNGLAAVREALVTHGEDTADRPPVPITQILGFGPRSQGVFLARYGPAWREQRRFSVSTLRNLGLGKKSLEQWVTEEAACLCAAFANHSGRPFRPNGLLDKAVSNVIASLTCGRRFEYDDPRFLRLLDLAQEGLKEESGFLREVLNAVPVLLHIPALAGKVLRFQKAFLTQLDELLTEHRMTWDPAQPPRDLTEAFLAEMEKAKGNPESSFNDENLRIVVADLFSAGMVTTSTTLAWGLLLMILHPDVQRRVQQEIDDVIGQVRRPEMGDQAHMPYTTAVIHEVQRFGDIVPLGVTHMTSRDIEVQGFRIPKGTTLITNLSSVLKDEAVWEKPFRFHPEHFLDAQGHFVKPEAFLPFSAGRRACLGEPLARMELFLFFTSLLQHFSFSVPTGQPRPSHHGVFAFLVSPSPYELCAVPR
Cytochrome P450 2C19, sequence (P33261 whole entry): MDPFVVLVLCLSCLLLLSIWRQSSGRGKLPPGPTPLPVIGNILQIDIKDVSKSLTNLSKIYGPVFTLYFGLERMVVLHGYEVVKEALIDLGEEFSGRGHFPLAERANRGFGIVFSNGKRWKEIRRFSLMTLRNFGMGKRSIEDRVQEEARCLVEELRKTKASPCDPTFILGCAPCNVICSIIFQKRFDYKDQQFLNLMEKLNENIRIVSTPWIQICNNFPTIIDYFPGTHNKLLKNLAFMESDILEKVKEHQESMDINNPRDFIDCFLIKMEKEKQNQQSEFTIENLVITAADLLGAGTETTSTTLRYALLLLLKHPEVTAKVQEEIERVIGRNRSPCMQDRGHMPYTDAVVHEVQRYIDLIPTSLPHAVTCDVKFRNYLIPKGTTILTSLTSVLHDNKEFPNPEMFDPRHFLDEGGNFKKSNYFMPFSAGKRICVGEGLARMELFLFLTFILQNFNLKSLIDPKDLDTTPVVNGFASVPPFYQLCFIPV
Cytochrome P450 3A4, sequence (P08684 whole entry): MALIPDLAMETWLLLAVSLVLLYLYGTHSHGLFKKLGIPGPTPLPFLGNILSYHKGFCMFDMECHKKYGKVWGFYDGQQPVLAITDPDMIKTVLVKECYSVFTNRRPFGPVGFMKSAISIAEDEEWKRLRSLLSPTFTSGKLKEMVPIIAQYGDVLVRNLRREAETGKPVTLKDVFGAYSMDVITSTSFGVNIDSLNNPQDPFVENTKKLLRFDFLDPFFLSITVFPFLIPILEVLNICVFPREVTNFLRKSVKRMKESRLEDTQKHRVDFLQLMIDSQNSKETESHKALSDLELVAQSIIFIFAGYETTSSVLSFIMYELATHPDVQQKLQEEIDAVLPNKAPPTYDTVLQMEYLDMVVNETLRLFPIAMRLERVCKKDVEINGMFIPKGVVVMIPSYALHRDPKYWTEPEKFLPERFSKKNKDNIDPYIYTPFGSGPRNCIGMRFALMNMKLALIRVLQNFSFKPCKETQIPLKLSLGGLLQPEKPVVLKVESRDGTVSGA
Voltage-gated inwardly rectifying potassium channel KCNH2, sequence (Q12809 whole entry): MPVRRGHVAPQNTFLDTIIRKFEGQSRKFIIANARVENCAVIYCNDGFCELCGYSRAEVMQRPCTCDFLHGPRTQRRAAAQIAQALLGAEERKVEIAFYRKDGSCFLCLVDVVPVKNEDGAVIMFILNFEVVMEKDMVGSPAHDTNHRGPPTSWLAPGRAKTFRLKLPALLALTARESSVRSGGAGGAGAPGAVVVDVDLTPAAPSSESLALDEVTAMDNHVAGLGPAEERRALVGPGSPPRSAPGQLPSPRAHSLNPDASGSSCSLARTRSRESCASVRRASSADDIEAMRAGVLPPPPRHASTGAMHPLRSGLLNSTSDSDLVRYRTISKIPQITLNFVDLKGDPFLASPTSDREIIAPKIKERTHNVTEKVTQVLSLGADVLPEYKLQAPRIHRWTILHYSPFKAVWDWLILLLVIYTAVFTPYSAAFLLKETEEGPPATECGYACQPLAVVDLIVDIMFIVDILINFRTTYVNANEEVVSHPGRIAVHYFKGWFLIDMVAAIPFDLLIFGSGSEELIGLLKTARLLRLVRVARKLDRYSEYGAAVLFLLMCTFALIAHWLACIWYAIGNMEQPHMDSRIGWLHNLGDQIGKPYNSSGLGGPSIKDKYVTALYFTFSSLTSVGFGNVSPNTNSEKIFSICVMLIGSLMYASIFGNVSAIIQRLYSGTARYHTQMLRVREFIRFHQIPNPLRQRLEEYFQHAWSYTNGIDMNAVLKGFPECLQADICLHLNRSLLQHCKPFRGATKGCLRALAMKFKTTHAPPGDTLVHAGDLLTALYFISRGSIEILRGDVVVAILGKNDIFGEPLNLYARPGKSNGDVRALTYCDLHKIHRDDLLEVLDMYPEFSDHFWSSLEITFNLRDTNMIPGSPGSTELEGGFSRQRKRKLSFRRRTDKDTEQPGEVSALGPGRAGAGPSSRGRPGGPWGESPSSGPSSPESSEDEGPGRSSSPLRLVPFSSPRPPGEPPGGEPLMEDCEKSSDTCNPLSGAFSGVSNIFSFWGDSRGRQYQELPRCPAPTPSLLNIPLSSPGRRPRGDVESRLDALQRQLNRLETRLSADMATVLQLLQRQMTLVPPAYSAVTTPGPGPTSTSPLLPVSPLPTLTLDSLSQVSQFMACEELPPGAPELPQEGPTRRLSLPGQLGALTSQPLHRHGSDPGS

Row | Structure (SMILES) | Emax at 16 h, 1 µM (PXR (NR1I2) [1]) | solubility thermodynamic at 10000 µM [2] | solubility thermodynamic [3] | Emax at 16 h, 10 µM (PXR (NR1I2) [4]) | half-life [5] | half-life [6] | INH (Cytochrome P450 1A2) | INH (Cytochrome P450 2C19) | INH (Cytochrome P450 2C8) | INH (Cytochrome P450 2C9) | INH (Cytochrome P450 2D6) | INH (Cytochrome P450 3A4) | Vd [7] | C0 [8] | half-life [9] | Cmax [10] | Tmax [11] | AUC(0-inf) [12] | half-life [13] | bioavailability [14] | further results
1 | CC(C)(C)NS(=O)(=O)c1ncc(-c2sc(C(=O)N[C@H]3C[C@H](C(=O)O)C3)nc2CC2CCCCC2)c2ccccc12 | 18% | 13 µM (≈ 7.6 µg/mL) | 382 µM (≈ 223 µg/mL) | 102% | 61 min | 77 min | > 10 µM | > 10 µM | > 10 µM | > 10 µM | > 10 µM | > 10 µM | 1.1 L/kg | 2800 ng/mL | 18 min | 52 ng/mL | 24 min | 87 ng·h/mL | 150 min | 7.5% | AUC (Rattus norvegicus): 232 ng·h/mL
2 | CC(C)(C)NS(=O)(=O)c1ccc(-c2sc(C(=O)NCCN3CCOCC3)nc2CC2CCCCC2)c2ccccc12 | – | < 4 µM | – | – | 5.1 min | < 4 min | > 10 µM | 1.1 µM | 2.8 µM | 0.4 µM | 6.2 µM | 7.1 µM | – | – | – | – | – | – | – | – | inhibition (INH) [17]: Not Active
3 | C[C@H](NS(=O)(=O)c1ccc(-c2sc(C(=O)N[C@H]3C[C@H](C(=O)O)C3)nc2CC2CCCCC2)c2ccccc12)C(F)(F)F | – | – | – | – | – | – | – | – | – | – | – | – | – | – | – | – | – | – | – | – | Stability [18]: Stable

More lines, main results first:

Row | Emax at 16 h, 1 µM (PXR (NR1I2) [1]) | solubility thermodynamic at 10000 µM [2] | solubility thermodynamic [3] | Emax at 16 h, 10 µM (PXR (NR1I2) [4]) | half-life [5] | half-life [6] | INH (Cytochrome P450 1A2) | INH (Cytochrome P450 2C19) | INH (Cytochrome P450 2C8) | INH (Cytochrome P450 2C9) | INH (Cytochrome P450 2D6) | INH (Cytochrome P450 3A4) | Vd [7] | C0 [8] | half-life [9] | Cmax [10] | Tmax [11] | AUC(0-inf) [12] | half-life [13] | bioavailability [14] | Structure (SMILES) | further results
4 | 21% | < 1 µM | 59 µM (≈ 35.2 µg/mL) | 34% | 44 min | 27 min | > 10 µM | > 10 µM | 1.8 µM | 3.2 µM | > 10 µM | > 10 µM | 2.1 L/kg | 1410 ng/mL | 24 min | 52 ng/mL | 48 min | 142 ng·h/mL | 186 min | 18% | CCC(C)(C)NS(=O)(=O)c1ccc(-c2sc(C(=O)N[C@H]3C[C@H](C(=O)O)C3)nc2CC2CCCCC2)c(Cl)c1C | clearance [15]: 98.8 mL/min/kg; AUC(0-inf) [16]: 170 ng·h/mL
5 | 139% | < 1 µM | < 4 µM | 160% | 55 min | 18 min | > 10 µM | > 10 µM | > 10 µM | 1.6 µM | > 10 µM | > 10 µM | 4.8 L/kg | 518 ng/mL | 90 min | 269 ng/mL | 60 min | 1580 ng·h/mL | 180 min | 87.7% | CC(C)(C)NS(=O)(=O)c1ccc(-c2sc(C(=O)N3CC4(C3)CS(=O)(=O)C4)nc2CC2CCCCC2)c(Cl)c1Cl | clearance [15]: 42.5 mL/min/kg; AUC(0-inf) [16]: 360 ng·h/mL
